According to ChEMBL document CHEMBL4373723 (J Med Chem, 2019):
Calls of active or inactive are those of the source. The rule behind the calls is not given here. Bridge positions count the residues as written; N and C are the ends. Square brackets hold non-standard residues; d marks the D form. Peptide text beside a SMILES is read from it. I, II: the chains in the order shown. Phe(2,4-Cl2) = N[C@@H](Cc1ccc(Cl)cc1Cl)C(=O)O; Phe(3-Cl) = N[C@@H](Cc1cccc(Cl)c1)C(=O)O; Ala(cPent) = N[C@@H](CC1CCCC1)C(=O)O

Legend:
[1] = biological target: T1, Frizzled-7 (Homo sapiens, UniProt O75084); assay type: cell-based; conditions: cho
[2] = biological target: T1, Frizzled-7; conditions: CHO
Description: Binding affinity to recombinant human Frizzled-7 (Gln33 to Leu185 residues)/human IgG1 chimeric protein expressed in CHO cells assessed as association rate constant by SPR assay

[3] = biological target: T1, Frizzled-7; experiment: biochemical; assay type: cell-based, CHO
[4] = biological target: T1, Frizzled-7; experiment: Inhibition of Frizzled-7 in HEK293 cells expressing Wnt assessed as reduction in Wnt signaling by firefly luciferase reporter gene assay; assay type: cell-based

CC[C@H](C)[C@H](NC(=O)[C@H](Cc1cnc[nH]1)NC(=O)[C@H](CSSC[C@H](NC(=O)[C@H](Cc1c[nH]c2ccccc12)NC(=O)[C@H](CC(C)C)NC(=O)[C@H](CCC(=O)O)NC(=O)[C@H](CC(C)C)NC(=O)[C@H](CC(=O)O)NC(=O)[C@H](CC(=O)O)NC(=O)[C@H](CO)NC(C)=O)C(=O)N[C@@H](Cc1cnc[nH]1)C(=O)N[C@H](C(=O)N[C@@H](CCSC)C(=O)N[C@@H](Cc1ccc(O)cc1)C(N)=O)[C@@H](C)CC)NC(=O)[C@H](Cc1c[nH]c2ccccc12)NC(=O)[C@H](CC(C)C)NC(=O)[C@H](CCC(=O)O)NC(=O)[C@H](CC(C)C)NC(=O)[C@H](CC(=O)O)NC(=O)[C@H](CC(=O)O)NC(=O)[C@H](CO)NC(C)=O)C(=O)N[C@@H](CCSC)C(=O)N[C@@H](Cc1ccc(O)cc1)C(N)=O (I: Ac-SDDLELWCHIMY-NH2 / II: Ac-SDDLELWCHIMY-NH2; disulfide I:8-II:8)
Kd [1]: 0.57 ×10⁻³ /s
Ka [2]: 128 ×10⁵ /M/s
Kd ([3]; read-out: Kd): 0.044 nM
IC50 [4]: 7.3 nM

CSCC[C@H](NC(=O)[C@@H](NC(=O)[C@H](Cc1cnc[nH]1)NC(=O)[C@H](CSSC[C@H](NC(=O)[C@H](Cc1c[nH]c2ccccc12)NC(=O)[C@H](Cc1ccccc1)NC(=O)[C@H](CCC(=O)O)NC(=O)[C@H](CC(C)C)NC(=O)[C@H](CC(=O)O)NC(=O)[C@H](CC(=O)O)NC(=O)[C@H](CO)NC(C)=O)C(=O)N[C@@H](Cc1cnc[nH]1)C(=O)N[C@H](C(=O)N[C@@H](CCSC)C(=O)N[C@@H](Cc1ccc(Cl)cc1Cl)C(N)=O)C(C)C)NC(=O)[C@H](Cc1c[nH]c2ccccc12)NC(=O)[C@H](Cc1ccccc1)NC(=O)[C@H](CCC(=O)O)NC(=O)[C@H](CC(C)C)NC(=O)[C@H](CC(=O)O)NC(=O)[C@H](CC(=O)O)NC(=O)[C@H](CO)NC(C)=O)C(C)C)C(=O)N[C@@H](Cc1ccc(Cl)cc1Cl)C(N)=O (I: Ac-SDDLEFWCHVM[Phe(2,4-Cl2)]-NH2 / II: Ac-SDDLEFWCHVM[Phe(2,4-Cl2)]-NH2; disulfide I:8-II:8)
Kd [1]: 2.89 ×10⁻³ /s
Ka [2]: 1.29 ×10⁵ /M/s
Kd ([3]; read-out: Kd): 22.5 nM

CSCC[C@H](NC(=O)[C@@H](CC1CC1)NC(=O)[C@H](Cc1cnc[nH]1)NC(=O)[C@H](CSSC[C@H](NC(=O)[C@H](Cc1c[nH]c2ccccc12)NC(=O)[C@H](Cc1ccccc1)NC(=O)[C@H](CCC(=O)O)NC(=O)[C@H](CC(C)C)NC(=O)[C@H](CC(=O)O)NC(=O)[C@H](CC(=O)O)NC(=O)[C@H](CO)NC(C)=O)C(=O)N[C@@H](Cc1cnc[nH]1)C(=O)N[C@H](CC1CC1)C(=O)N[C@@H](CCSC)C(=O)N[C@@H](Cc1ccc(O)cc1)C(N)=O)NC(=O)[C@H](Cc1c[nH]c2ccccc12)NC(=O)[C@H](Cc1ccccc1)NC(=O)[C@H](CCC(=O)O)NC(=O)[C@H](CC(C)C)NC(=O)[C@H](CC(=O)O)NC(=O)[C@H](CC(=O)O)NC(=O)[C@H](CO)NC(C)=O)C(=O)N[C@@H](Cc1ccc(O)cc1)C(N)=O
Kd [1]: 1.26 ×10⁻³ /s
Ka [2]: 80.4 ×10⁵ /M/s
Kd ([3]; cho, read-out: Kd): 0.16 nM

CSCC[C@H](NC(=O)[C@@H](NC(=O)[C@H](Cc1cnc[nH]1)NC(=O)[C@H](CSSC[C@H](NC(=O)[C@H](Cc1c[nH]c2ccccc12)NC(=O)[C@H](CC(C)C)NC(=O)[C@H](CCCCN)NC(=O)[C@H](CC(C)C)NC(=O)[C@H](CC(=O)O)NC(=O)[C@H](CC(=O)O)NC(=O)[C@H](CO)NC(C)=O)C(=O)N[C@@H](Cc1cnc[nH]1)C(=O)N[C@H](C(=O)N[C@@H](CCSC)C(=O)N[C@@H](Cc1ccc(O)cc1)C(N)=O)C(C)C)NC(=O)[C@H](Cc1c[nH]c2ccccc12)NC(=O)[C@H](CC(C)C)NC(=O)[C@H](CCCCN)NC(=O)[C@H](CC(C)C)NC(=O)[C@H](CC(=O)O)NC(=O)[C@H](CC(=O)O)NC(=O)[C@H](CO)NC(C)=O)C(C)C)C(=O)N[C@@H](Cc1ccc(O)cc1)C(N)=O (I: Ac-SDDLKLWCHVMY-NH2 / II: Ac-SDDLKLWCHVMY-NH2; disulfide I:8-II:8)
Kd [1]: 0.58 ×10⁻³ /s
Ka [2]: 55.6 ×10⁵ /M/s
Kd ([3]; read-out: Kd): 0.142 nM

CSCC[C@H](NC(=O)[C@H](CC(C)C)NC(=O)[C@H](Cc1cnc[nH]1)NC(=O)[C@H](CSSC[C@H](NC(=O)[C@H](Cc1c[nH]c2ccccc12)NC(=O)[C@H](Cc1ccccc1)NC(=O)[C@H](CCC(=O)O)NC(=O)[C@H](CC(C)C)NC(=O)[C@H](CC(=O)O)NC(=O)[C@H](CC(=O)O)NC(=O)[C@H](CO)NC(C)=O)C(=O)N[C@@H](Cc1cnc[nH]1)C(=O)N[C@@H](CC(C)C)C(=O)N[C@@H](CCSC)C(=O)N[C@@H](Cc1ccc(O)cc1)C(N)=O)NC(=O)[C@H](Cc1c[nH]c2ccccc12)NC(=O)[C@H](Cc1ccccc1)NC(=O)[C@H](CCC(=O)O)NC(=O)[C@H](CC(C)C)NC(=O)[C@H](CC(=O)O)NC(=O)[C@H](CC(=O)O)NC(=O)[C@H](CO)NC(C)=O)C(=O)N[C@@H](Cc1ccc(O)cc1)C(N)=O (I: Ac-SDDLEFWCHLMY-NH2 / II: Ac-SDDLEFWCHLMY-NH2; disulfide I:8-II:8)
Kd [1]: 1.9 ×10⁻³ /s
Ka [2]: 67.2 ×10⁵ /M/s
Kd ([3]; read-out: Kd): 0.28 nM

CSCC[C@H](NC(=O)[C@@H](NC(=O)[C@H](Cc1cnc[nH]1)NC(=O)[C@H](CSSC[C@H](NC(=O)[C@H](Cc1c[nH]c2ccccc12)NC(=O)[C@H](Cc1ccccc1)NC(=O)[C@H](CCCCN)NC(=O)[C@H](CC(C)C)NC(=O)[C@H](CC(=O)O)NC(=O)[C@H](CC(=O)O)NC(=O)[C@H](CO)NC(C)=O)C(=O)N[C@@H](Cc1cnc[nH]1)C(=O)N[C@H](C(=O)N[C@@H](CCSC)C(=O)N[C@@H](Cc1ccc(O)cc1)C(N)=O)C(C)C)NC(=O)[C@H](Cc1c[nH]c2ccccc12)NC(=O)[C@H](Cc1ccccc1)NC(=O)[C@H](CCCCN)NC(=O)[C@H](CC(C)C)NC(=O)[C@H](CC(=O)O)NC(=O)[C@H](CC(=O)O)NC(=O)[C@H](CO)NC(C)=O)C(C)C)C(=O)N[C@@H](Cc1ccc(O)cc1)C(N)=O (I: Ac-SDDLKFWCHVMY-NH2 / II: Ac-SDDLKFWCHVMY-NH2; disulfide I:8-II:8)
Kd [1]: 1.33 ×10⁻³ /s
Ka [2]: 85.6 ×10⁵ /M/s
Kd ([3]; read-out: Kd): 0.157 nM

CC[C@H](C)[C@H](NC(=O)[C@H](Cc1cnc[nH]1)NC(=O)[C@H](CSSC[C@H](NC(=O)[C@H](Cc1c[nH]c2ccccc12)NC(=O)[C@H](CC(C)C)NC(=O)[C@H](CCCCN)NC(=O)[C@H](CC(C)C)NC(=O)[C@H](CC(=O)O)NC(=O)[C@H](CC(=O)O)NC(=O)[C@@H](NC(C)=O)[C@H](C)O)C(=O)N[C@@H](Cc1cnc[nH]1)C(=O)N[C@H](C(=O)N[C@@H](CCSC)C(=O)N[C@@H](Cc1ccc(O)cc1)C(N)=O)[C@@H](C)CC)NC(=O)[C@H](Cc1c[nH]c2ccccc12)NC(=O)[C@H](CC(C)C)NC(=O)[C@H](CCCCN)NC(=O)[C@H](CC(C)C)NC(=O)[C@H](CC(=O)O)NC(=O)[C@H](CC(=O)O)NC(=O)[C@@H](NC(C)=O)[C@H](C)O)C(=O)N[C@@H](CCSC)C(=O)N[C@@H](Cc1ccc(O)cc1)C(N)=O
Kd [1]: 0.46 ×10⁻³ /s
Ka [2]: 103 ×10⁵ /M/s
Kd ([3]; read-out: Kd): 0.045 nM
IC50 [4]: 4.8 nM

CC[C@H](C)[C@H](NC(=O)[C@H](Cc1cnc[nH]1)NC(=O)[C@H](CSSC[C@H](NC(=O)[C@H](Cc1c[nH]c2ccccc12)NC(=O)[C@H](Cc1cccc(Cl)c1)NC(=O)[C@H](CCC(=O)O)NC(=O)[C@H](CC(C)C)NC(=O)[C@H](CC(=O)O)NC(=O)[C@H](CC(=O)O)NC(=O)[C@H](CO)NC(C)=O)C(=O)N[C@@H](Cc1cnc[nH]1)C(=O)N[C@H](C(=O)N[C@@H](CCSC)C(=O)N[C@@H](Cc1ccc(O)cc1)C(N)=O)[C@@H](C)CC)NC(=O)[C@H](Cc1c[nH]c2ccccc12)NC(=O)[C@H](Cc1cccc(Cl)c1)NC(=O)[C@H](CCC(=O)O)NC(=O)[C@H](CC(C)C)NC(=O)[C@H](CC(=O)O)NC(=O)[C@H](CC(=O)O)NC(=O)[C@H](CO)NC(C)=O)C(=O)N[C@@H](CCSC)C(=O)N[C@@H](Cc1ccc(O)cc1)C(N)=O (I: Ac-SDDLE[Phe(3-Cl)]WCHIMY-NH2 / II: Ac-SDDLE[Phe(3-Cl)]WCHIMY-NH2; disulfide I:8-II:8)
Kd [1]: 0.57 ×10⁻³ /s
Ka [2]: 68.4 ×10⁵ /M/s
Kd ([3]; read-out: Kd): 0.083 nM

CSCC[C@H](NC(=O)[C@@H](NC(=O)[C@H](Cc1cnc[nH]1)NC(=O)[C@H](CO)NC(=O)[C@H](Cc1c[nH]c2ccccc12)NC(=O)[C@H](Cc1ccccc1)NC(=O)[C@H](CCC(=O)O)NC(=O)[C@H](CC(C)C)NC(=O)[C@H](CC(=O)O)NC(=O)[C@H](CC(=O)O)NC(=O)[C@H](CO)NC(=O)[C@@H]1CCCN1C(=O)[C@H](CC(C)C)NC(C)=O)C(C)C)C(=O)N[C@@H](Cc1ccc(O)cc1)C(N)=O (Ac-LPSDDLEFWSHVMY-NH2)
Kd [1]: Not Active
Ka [2]: inactive
Kd ([3]; cho): Not Active

CSCC[C@H](NC(=O)[C@@H](NC(=O)[C@H](Cc1cnc[nH]1)NC(=O)[C@H](CSSC[C@H](NC(=O)[C@H](Cc1c[nH]c2ccccc12)NC(=O)[C@H](Cc1ccccc1)NC(=O)[C@H](CCC(=O)O)NC(=O)[C@H](CC1CCCC1)NC(=O)[C@H](CC(=O)O)NC(=O)[C@H](CC(=O)O)NC(=O)[C@H](CO)NC(C)=O)C(=O)N[C@@H](Cc1cnc[nH]1)C(=O)N[C@H](C(=O)N[C@@H](CCSC)C(=O)N[C@@H](Cc1ccc(O)cc1)C(N)=O)C(C)C)NC(=O)[C@H](Cc1c[nH]c2ccccc12)NC(=O)[C@H](Cc1ccccc1)NC(=O)[C@H](CCC(=O)O)NC(=O)[C@H](CC1CCCC1)NC(=O)[C@H](CC(=O)O)NC(=O)[C@H](CC(=O)O)NC(=O)[C@H](CO)NC(C)=O)C(C)C)C(=O)N[C@@H](Cc1ccc(O)cc1)C(N)=O (I: Ac-SDD[Ala(cPent)]EFWCHVMY-NH2 / II: Ac-SDD[Ala(cPent)]EFWCHVMY-NH2; disulfide I:8-II:8)
Kd [1]: 9.9 ×10⁻³ /s
Ka [2]: 46.5 ×10⁵ /M/s
Kd ([3]; read-out: Kd): 2.1 nM
